Data: ChEMBL document CHEMBL1201862, “PubChem BioAssay data set” (2004)
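Compound exposure: 48 hours, 5 concentrations, 96-well plates. At the GI50, growth is halved.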 Active and inactive are the calls of the source. No stated cut-off is given here; in the data, active = GI50 up to about 1.1 µM and inactive = higher.

Assays:
Assay in all cases: DTP human tumour cell line panel, 48 h
[1] = test system: 786-0
[2] = test system: A498
[3] = test system: A549
[4] = test system: ACHN
[5] = test system: CAKI-1
[6] = test system: CCRF-CEM
[7] = test system: COLO 205
[8] = test system: DMS-114
[9] = test system: DMS-273
[10] = test system: EKVX
[11] = test system: HCT-116
[12] = test system: HCT-15
[13] = test system: HL-60
[14] = test system: HT-29
[15] = test system: K562
[16] = test system: KM-20L2
[17] = test system: KM12
[18] = test system: LOX IMVI
[19] = test system: LXFL 529
[20] = test system: M14
[21] = test system: M19-MEL
[22] = test system: MOLT-4
[23] = test system: Malme-3M
[24] = test system: NCI-H226
[25] = test system: NCI-H23
[26] = test system: NCI-H460
[27] = test system: NCI-H522
[28] = test system: OVCAR-3
[29] = test system: OVCAR-4
[30] = test system: OVCAR-5
[31] = test system: OVCAR-8
[32] = test system: RPMI-8226
[33] = test system: RXF 393
[34] = test system: RXF 631
[35] = test system: SF-268
[36] = test system: SF-295
[37] = test system: SF-539
[38] = test system: SK-MEL-28
[39] = test system: SK-MEL-2
[40] = test system: SK-MEL-5
[41] = test system: SK-OV-3
[42] = test system: SN12C
[43] = test system: SNB-19
[44] = test system: SNB-75
[45] = test system: SNB-78
[46] = test system: SR
[47] = test system: SW-620
[48] = test system: U-251
[49] = test system: UACC-257
[50] = test system: UACC-62
[51] = test system: UO-31
[52] = test system: DLD-1
[53] = test system: HCC 2998
[54] = test system: HOP-18
[55] = test system: HOP-62
[56] = test system: HOP-92
[57] = test system: IGROV-1
[58] = test system: TK-10
[59] = test system: XF498

With O=c1c2ccccc2nc(-c2cccc(Cl)c2)n1NCC1(O)OCC(O)C(O)C1O (configuration not stated) the GI50 [1] was > 100 µM (inactive), the GI50 [2] was > 100 µM (inactive) and the GI50 [3] was > 100 µM (inactive). For the same compound, the GI50 [4] was > 100 µM (inactive), the GI50 [5] was > 100 µM (inactive) and the GI50 [6] was 41.7 µM (inactive). The GI50 [7] was > 100 µM (inactive), the GI50 [8] was > 100 µM (inactive) and the GI50 [9] was > 100 µM (inactive). The GI50 [10] was > 100 µM (inactive), the GI50 [11] was > 100 µM (inactive) and the GI50 [12] was greater than 100 µM. The GI50 [13] was 30.7 µM (inactive), the GI50 [14] was > 100 µM (inactive) and the GI50 [15] was 45.7 µM (inactive). For the same compound, the GI50 [16] was > 100 µM (inactive), the GI50 [17] was > 100 µM (inactive) and the GI50 [18] was > 100 µM (inactive). The GI50 [19] was 93.1 µM (inactive), the GI50 [20] was > 100 µM (inactive) and the GI50 [21] was > 100 µM (inactive). The GI50 [22] was 48.2 µM (inactive), the GI50 [23] was > 100 µM (inactive) and the GI50 [24] was > 100 µM (inactive). For the same compound, the GI50 [25] was > 100 µM (inactive), the GI50 [26] was > 100 µM (inactive) and the GI50 [27] was 37.8 µM (inactive). For the same compound, the GI50 [28] was > 100 µM (inactive), the GI50 [29] was > 100 µM (inactive) and the GI50 [30] was > 100 µM (inactive). The GI50 [31] was > 100 µM (inactive), the GI50 [32] was 41.1 µM (inactive) and the GI50 [33] was 51.9 µM (inactive). The GI50 [34] was 66.5 µM (inactive), the GI50 [35] was > 100 µM (inactive) and the GI50 [36] was > 100 µM (inactive). The GI50 [37] was > 100 µM (inactive), the GI50 [38] was > 100 µM (inactive) and the GI50 [39] was > 100 µM (inactive). The GI50 [40] was > 10 µM (inactive), the GI50 [41] was > 100 µM (inactive) and the GI50 [42] was > 100 µM (inactive). The GI50 [43] was > 100 µM (inactive), the GI50 [44] was > 10 µM (inactive) and the GI50 [45] was > 100 µM (inactive). For the same compound, the GI50 [46] was 43.9 µM (inactive), the GI50 [47] was > 100 µM (inactive) and the GI50 [48] was > 100 µM (inactive). The GI50 [49] was > 100 µM (inactive), the GI50 [50] was > 100 µM (inactive) and the GI50 [51] was > 100 µM (inactive).
For O=C1C2C=CC(n3[nH]c(=O)n(Cc4ccccc4)c3=O)CC2C(=O)N1c1cccc(Cl)c1 (configuration not stated), the GI50 [1] was > 100 µM (inactive), the GI50 [2] was > 100 µM (inactive) and the GI50 [3] was > 100 µM (inactive). The GI50 [4] was > 100 µM (inactive), the GI50 [5] was > 100 µM (inactive) and the GI50 [6] was > 100 µM (inactive). For the same compound, the GI50 [7] was > 100 µM (inactive), the GI50 [52] was > 100 µM (inactive) and the GI50 [8] was > 100 µM (inactive). The GI50 [9] was > 100 µM (inactive), the GI50 [10] was > 100 µM (inactive) and the GI50 [53] was > 100 µM (inactive). For the same compound, the GI50 [11] was > 100 µM (inactive), the GI50 [12] was greater than 100 µM and the GI50 [13] was > 100 µM (inactive). The GI50 [54] was > 100 µM (inactive), the GI50 [55] was > 100 µM (inactive) and the GI50 [56] was > 100 µM (inactive). For the same compound, the GI50 [14] was > 100 µM (inactive), the GI50 [57] was > 100 µM (inactive) and the GI50 [15] was > 100 µM (inactive). The GI50 [16] was > 100 µM (inactive), the GI50 [17] was > 100 µM (inactive) and the GI50 [18] was > 100 µM (inactive). For the same compound, the GI50 [19] was > 100 µM (inactive), the GI50 [20] was > 100 µM (inactive) and the GI50 [21] was > 100 µM (inactive). The GI50 [23] was > 100 µM (inactive), the GI50 [24] was > 100 µM (inactive) and the GI50 [25] was > 100 µM (inactive). For the same compound, the GI50 [26] was > 100 µM (inactive), the GI50 [27] was > 100 µM (inactive) and the GI50 [28] was > 100 µM (inactive). For the same compound, the GI50 [29] was > 100 µM (inactive), the GI50 [30] was > 100 µM (inactive) and the GI50 [31] was > 100 µM (inactive). For the same compound, the GI50 [33] was > 100 µM (inactive), the GI50 [35] was > 100 µM (inactive) and the GI50 [36] was > 100 µM (inactive). The GI50 [37] was > 100 µM (inactive), the GI50 [38] was > 100 µM (inactive) and the GI50 [39] was > 100 µM (inactive). The GI50 [40] was > 100 µM (inactive), the GI50 [41] was > 100 µM (inactive) and the GI50 [42] was > 100 µM (inactive). For the same compound, the GI50 [43] was > 100 µM (inactive), the GI50 [44] was > 100 µM (inactive) and the GI50 [45] was > 100 µM (inactive). For the same compound, the GI50 [46] was > 100 µM (inactive), the GI50 [47] was > 100 µM (inactive) and the GI50 [58] was > 100 µM (inactive). For the same compound, the GI50 [48] was > 100 µM (inactive), the GI50 [49] was > 100 µM (inactive) and the GI50 [50] was > 100 µM (inactive). The GI50 [51] was > 100 µM (inactive) and the GI50 [59] was 65.9 µM (inactive).
O=C1OC(c2ccccc2)=N/C1=C/NC(Cc1ccccc1)C(=O)O (configuration not stated) was tested, and the GI50 [1] was > 100 µM (inactive), the GI50 [2] was > 100 µM (inactive) and the GI50 [3] was > 100 µM (inactive). For the same compound, the GI50 [4] was > 100 µM (inactive), the GI50 [5] was > 100 µM (inactive) and the GI50 [6] was > 100 µM (inactive). For the same compound, the GI50 [7] was > 100 µM (inactive), the GI50 [52] was > 100 µM (inactive) and the GI50 [9] was > 100 µM (inactive). For the same compound, the GI50 [10] was > 100 µM (inactive), the GI50 [53] was > 100 µM (inactive) and the GI50 [11] was > 100 µM (inactive). The GI50 [12] was greater than 100 µM, the GI50 [13] was > 100 µM (inactive) and the GI50 [55] was > 100 µM (inactive). For the same compound, the GI50 [14] was > 100 µM (inactive), the GI50 [57] was > 100 µM (inactive) and the GI50 [15] was > 100 µM (inactive). The GI50 [16] was > 100 µM (inactive), the GI50 [17] was > 100 µM (inactive) and the GI50 [18] was > 100 µM (inactive). For the same compound, the GI50 [19] was > 100 µM (inactive), the GI50 [20] was > 100 µM (inactive) and the GI50 [21] was > 100 µM (inactive). The GI50 [22] was > 100 µM (inactive), the GI50 [23] was > 100 µM (inactive) and the GI50 [24] was > 100 µM (inactive). The GI50 [25] was > 100 µM (inactive), the GI50 [26] was > 100 µM (inactive) and the GI50 [27] was > 100 µM (inactive). For the same compound, the GI50 [28] was > 100 µM (inactive), the GI50 [29] was > 100 µM (inactive) and the GI50 [30] was > 100 µM (inactive). For the same compound, the GI50 [31] was > 100 µM (inactive), the GI50 [32] was > 100 µM (inactive) and the GI50 [33] was > 100 µM (inactive). The GI50 [34] was > 100 µM (inactive), the GI50 [35] was > 100 µM (inactive) and the GI50 [36] was > 100 µM (inactive). The GI50 [37] was > 100 µM (inactive), the GI50 [38] was > 100 µM (inactive) and the GI50 [39] was > 100 µM (inactive). For the same compound, the GI50 [40] was > 100 µM (inactive), the GI50 [41] was > 100 µM (inactive) and the GI50 [42] was > 100 µM (inactive). For the same compound, the GI50 [43] was > 100 µM (inactive), the GI50 [44] was 50.8 µM (inactive) and the GI50 [45] was > 100 µM (inactive). For the same compound, the GI50 [46] was > 100 µM (inactive), the GI50 [47] was > 100 µM (inactive) and the GI50 [58] was > 100 µM (inactive). For the same compound, the GI50 [48] was > 100 µM (inactive), the GI50 [49] was > 100 µM (inactive) and the GI50 [50] was > 100 µM (inactive). The GI50 [51] was > 100 µM (inactive).
